# Laboratory results published in patent publication US12686680B2, “Substituted pyrazolo[1,5-α]pyrimidines as CRF receptor antagonists” (Neurocrine Biosciences, Inc., priority 2019, dated 2026).
# Structures can show the parent of a compound that is named as a salt.
# What was measured:
# [1] = Solubility determination of Compound 1 Form I in various vehicles (Example 60); type: physicochemical
# Procedure: The solubility of Compound 1 Form I was evaluated in various vehicles in an attempt to achieve doses of 0.5 mg/mL (IV) and 1.0 mg/mL (PO). […] Vortex mixing and sonication were used to dissolve particles, then samples were transferred to 0.22 μm nylon centrifuge tube filters and centrifuged for approximately 2 minutes @10,000 rpm. All samples were diluted with the method diluent (if necessary) and analyzed by HPLC providing the results shown in the below Table.
# [2] = Solubility determination of solid forms of Compound 1 in solvents (Example 52); type: physicochemical
# Excerpt: X-Ray Powder diffraction (XRPD), differential scanning calorimetry (DSC), thermal gravimetric analysis (TGA), and UV-Metric/pH-Metric Titration (SiriusT3) were used to characterize Form I of Compound 1. UPLC was used to evaluate solubility of each material in various vehicles.
compound,measurement,setting,value
"CCCN(Cc1ccc(-c2csc(N(C)C)n2)cc1)c1cc(C)nc2c(-c3cnc(N(C)C)cc3C)c(C)nn12 [Compound 1 Form I, 5-{7-[({4-[2-(dimethylamino)-1,3-thiazol-4-yl]phenyl}methyl)(propyl)amino]-2,5-dimethylpyrazolo[1,5-a]pyrimidin-3-yl}-N,N,4-trimethylpyridin-2-amine]",Final/Actual pH,"[1]; 50 mM Citrate, pH 2",3.1
same,Solubility <USP 34>,"[1]; 50 mM Citrate, pH 2",Slightly Soluble
same,[Compound 1],"[1]; 50 mM Citrate, pH 2",3.3 mg/mL
same,Final/Actual pH,"[1]; 50 mM Citrate, pH 3",3.3
same,Solubility <USP 34>,"[1]; 50 mM Citrate, pH 3",Slightly Soluble
same,[Compound 1],"[1]; 50 mM Citrate, pH 3",1.7 mg/mL
same,Final/Actual pH,"[1]; 50 mM Citrate, pH 4",4.1
same,Solubility <USP 34>,"[1]; 50 mM Citrate, pH 4",Practically
same,[Compound 1],"[1]; 50 mM Citrate, pH 4",~0 mg/mL
same,Final/Actual pH,"[1]; 50 mM Citrate, pH 5",5.0
same,Solubility <USP 34>,"[1]; 50 mM Citrate, pH 5",Practically
same,[Compound 1],"[1]; 50 mM Citrate, pH 5",~0 mg/mL
same,Final/Actual pH,"[1]; 50 mM Citrate, pH 6",6.1
same,Solubility <USP 34>,"[1]; 50 mM Citrate, pH 6",Practically
same,[Compound 1],"[1]; 50 mM Citrate, pH 6",~0 mg/mL
same,Final/Actual pH,"[1]; 50 mM Citrate, pH 7",7.1
same,Solubility <USP 34>,"[1]; 50 mM Citrate, pH 7",Practically
same,[Compound 1],"[1]; 50 mM Citrate, pH 7",~0 mg/mL
same,Final/Actual pH,"[1]; 50 mM Phosphate, pH 8",8.1
same,Solubility <USP 34>,"[1]; 50 mM Phosphate, pH 8",Practically
same,[Compound 1],"[1]; 50 mM Phosphate, pH 8",Below
same,Final/Actual pH,[1]; 1% Poloxamer 188 in Water,8.0
same,Solubility <USP 34>,[1]; 1% Poloxamer 188 in Water,Practically
same,[Compound 1],[1]; 1% Poloxamer 188 in Water,~0 mg/mL
same,Final/Actual pH,[1]; 1% TW80 in Water,7.6
same,Solubility <USP 34>,[1]; 1% TW80 in Water,Practically
same,[Compound 1],[1]; 1% TW80 in Water,~0 mg/mL
same,Final/Actual pH,[1]; 10% HP-β-CD in Water,8.2
same,Solubility <USP 34>,[1]; 10% HP-β-CD in Water,Practically
same,[Compound 1],[1]; 10% HP-β-CD in Water,~0 mg/mL
same,Final/Actual pH,[1]; 100% Water,8.3
same,Solubility <USP 34>,[1]; 100% Water,Practically
same,[Compound 1],[1]; 100% Water,~0 mg/mL
"CCCN(Cc1ccc(-c2csc(N(C)C)n2)cc1)c1cc(C)nc2c(-c3cnc(N(C)C)cc3C)c(C)nn12 [Compound 1-1 (FB), 5-{7-[({4-[2-(dimethylamino)-1,3-thiazol-4-yl]phenyl}methyl)(propyl)amino]-2,5-dimethylpyrazolo[1,5-a]pyrimidin-3-yl}-N,N,4-trimethylpyridin-2-amine]",Solubility,[2]; 50 mM CB pH 3,1.7 mg/mL FB
same,Measured pH,[2]; 50 mM CB pH 4,pH 4.1
same,Solubility,[2]; 50 mM CB pH 4,0 mg/mL FB
same,Measured pH,[2]; 50 mM CB pH 5,pH 4.4
same,Solubility,[2]; 50 mM CB pH 5,0 mg/mL FB
same,Measured pH,[2]; 50 mM CB pH 6,pH 6.1
same,Solubility,[2]; 50 mM CB pH 6,0 mg/mL FB
same,Solubility,[2]; 50 mM PB pH 1,14.9 mg/mL FB
same,Measured pH,[2]; 50 mM PB pH 2,pH 2.7
same,Solubility,[2]; 50 mM PB pH 2,6.5 mg/mL FB
same,Measured pH,[2]; 50 mM PB pH 7,pH 7.0
same,Solubility,[2]; 50 mM PB pH 7,0 mg/mL FB
same,Measured pH,[2]; 100% H2O,pH 6.7
same,Solubility,[2]; 100% H2O,0 mg/mL FB
"CCCN(Cc1ccc(-c2csc(N(C)C)n2)cc1)c1cc(C)nc2c(-c3cnc(N(C)C)cc3C)c(C)nn12 [Compound 1-2 (FB), 5-{7-[({4-[2-(dimethylamino)-1,3-thiazol-4-yl]phenyl}methyl)(propyl)amino]-2,5-dimethylpyrazolo[1,5-a]pyrimidin-3-yl}-N,N,4-trimethylpyridin-2-amine]",Measured pH,[2]; 50 mM CB pH 3,pH 3.3
same,Solubility,[2]; 50 mM CB pH 3,1.7 mg/mL FB
same,Measured pH,[2]; 50 mM CB pH 4,pH 4.1
same,Solubility,[2]; 50 mM CB pH 4,0 mg/mL FB
same,Measured pH,[2]; 50 mM CB pH 5,pH 5.0
same,Solubility,[2]; 50 mM CB pH 5,0 mg/mL FB
same,Measured pH,[2]; 50 mM CB pH 6,pH 6.1
same,Solubility,[2]; 50 mM CB pH 6,0 mg/mL FB
same,Measured pH,[2]; 50 mM PB pH 2,pH 3.1
same,Solubility,[2]; 50 mM PB pH 2,3.3 mg/mL FB
same,Measured pH,[2]; 50 mM PB pH 7,pH 7.1
same,Solubility,[2]; 50 mM PB pH 7,0 mg/mL FB
same,Measured pH,[2]; 50 mM PB pH 8,pH 8.1
same,Solubility,[2]; 50 mM PB pH 8,0 mg/mL FB
same,Measured pH,[2]; 100% H2O,pH 8.3
same,Solubility,[2]; 100% H2O,0 mg/mL FB
"CCCN(Cc1ccc(-c2csc(N(C)C)n2)cc1)c1cc(C)nc2c(-c3cnc(N(C)C)cc3C)c(C)nn12 [Compound 1-3 (HCl), 5-{7-[({4-[2-(dimethylamino)-1,3-thiazol-4-yl]phenyl}methyl)(propyl)amino]-2,5-dimethylpyrazolo[1,5-a]pyrimidin-3-yl}-N,N,4-trimethylpyridin-2-amine]",Measured pH,[2]; 50 mM BB pH 9,pH 8.7
same,Solubility,[2]; 50 mM BB pH 9,Below
same,Measured pH,[2]; 50 mM CB pH 3,pH 3.2
same,Solubility,[2]; 50 mM CB pH 3,0.8 mg/mL FB
same,Measured pH,[2]; 50 mM CB pH 4,pH 3.9
same,Solubility,[2]; 50 mM CB pH 4,0 mg/mL FB
same,Measured pH,[2]; 50 mM CB pH 6,pH 5.8
same,Solubility,[2]; 50 mM CB pH 6,0 mg/mL FB
same,Measured pH,[2]; 50 mM PB pH 2,pH 2.9
same,Solubility,[2]; 50 mM PB pH 2,4.4 mg/mL FB
same,Measured pH,[2]; 50 mM PB pH 8,pH 7.5
same,Solubility,[2]; 50 mM PB pH 8,0 mg/mL FB
same,Measured pH,[2]; 100% H2O,pH 3.3
same,Solubility,[2]; 100% H2O,0.4 mg/mL FB
same,Solubility,[2]; ACN,0.7 mg/mL FB
same,Solubility,[2]; Acetone,0.4 mg/mL FB
same,Solubility,[2]; DMSO,0.9 mg/mL FB
same,Solubility,[2]; EtOAc,0.1 mg/mL FB
same,Solubility,[2]; EtOH,5.3 mg/mL FB
same,Solubility,[2]; IPA,0.8 mg/mL FB
same,Solubility,[2]; MeOH,32.3 mg/mL FB
